Series [1] deals with T1, Cannabinoid receptor 2 (Rattus norvegicus, UniProt Q9QZN9).
T1 sequence (Q9QZN9 whole entry): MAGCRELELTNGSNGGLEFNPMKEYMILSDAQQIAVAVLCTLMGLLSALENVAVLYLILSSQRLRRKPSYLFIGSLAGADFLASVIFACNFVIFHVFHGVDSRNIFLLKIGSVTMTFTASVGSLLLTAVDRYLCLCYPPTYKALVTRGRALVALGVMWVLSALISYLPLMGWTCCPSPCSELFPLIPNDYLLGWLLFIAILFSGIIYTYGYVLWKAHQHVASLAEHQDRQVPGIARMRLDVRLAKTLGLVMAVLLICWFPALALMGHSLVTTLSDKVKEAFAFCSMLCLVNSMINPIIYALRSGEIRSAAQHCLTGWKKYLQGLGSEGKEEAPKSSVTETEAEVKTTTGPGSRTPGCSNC
In words: Agonist activity at CB2 receptor in rat cerebellar membrane assessed as WIN-55212-2-stimulated [35S]GTPgammaS binding after 6 hrs by scintillation spectrometry. In kind it is functional, cell membranes, Cerebellum.

Series [2] can be described thus: Metabolic stability in human liver microsomes assessed as compound remaining at […] after 30 mins. The series is classed as ADME, Microsome. The conditions noted are these: read-out: Stability. (In general: Liver microsomes are a subcellular fraction often used to study metabolism.)
Series [3] concerns the target T2, Cannabinoid receptor 1 (Homo sapiens, UniProt P21554). In words: Displacement of [3H][…] from human cloned CB1 receptor after 120 mins by scintillation spectroscopy. On the technique in general: Loss of bound radioactivity is the signal in a displacement assay; it reports binding, not function.
The species named for another series is Homo sapiens. In words: Selectivity ratio of Ki for human cloned CB1 receptor to Ki for human cloned CB2 receptor.
Series [4] has as its target T3, Cannabinoid receptor 2 (Homo sapiens, UniProt P34972). In words: Displacement of [3H][…] from human cloned CB2 receptor after 60 mins by scintillation spectroscopy.
Series [5] has as its target T2, Cannabinoid receptor 1. The experiment in a line: Inhibition of [3H][…] binding to human cloned CB1 receptor at 10 uM after 120 mins by scintillation spectroscopy.
A short description of series [6]: Metabolic stability in rat liver microsomes assessed as compound remaining at […] after 30 mins. The following applies: read-out: Stability. In kind it is ADME, Microsome.
Series [7] deals with T3, Cannabinoid receptor 2. In words: Inhibition of [3H][…] binding to human cloned CB2 receptor at 10 uM after 60 mins by scintillation spectroscopy.
Series [8] in a line: Oral bioavailability in Sprague-Dawley rat at 10 mg/kg administered as single dose. The series is classed as ADME, organism-based. The following applies: in vivo.
Series [9] in a line: Tmax in Beagle dog at 10 mg/kg, po administered as single dose. In kind it is ADME, organism-based, Canis lupus familiaris. More on the design: dose 10 mg/kg, route oral. The following applies: in vivo.
A further series relates to Rattus norvegicus. In words: Antiallodynic activity against neuropathic pain in L5 spinal nerve ligated rat model assessed as reduction of allodynia at 100 mg/kg, po administered 9 days after surgery relative to control. In kind it is functional. Details: scale not given: the % may be the effect or the level left.
Series [10] is described as follows: Half life in Beagle dog at 10 mg/kg, po administered as single dose. In kind it is ADME, organism-based, Canis lupus familiaris. More on the design: dose 10 mg/kg, route oral. The following applies: in vivo.
Series [11] deals with Canis familiaris. The experiment in a line: Oral bioavailability in Beagle dog at 10 mg/kg, po administered as single dose. In kind it is ADME, organism-based, Canis lupus familiaris. The following applies: in vivo.
The nature of series [12]: Half life in Sprague-Dawley rat at 10 mg/kg, po administered as single dose. The series is classed as ADME, organism-based. Details: dose 10 mg/kg, route oral. The following applies: in vivo.
The nature of series [13]: Volume of distribution at steady state in Sprague-Dawley rat at 1 mg/kg, iv administered as single dose. The series is classed as ADME, organism-based. More on the design: dose 1 mg/kg, route intravenous. The following applies: in vivo, read-out: Vdss.
The nature of series [14]: AUC (0 to infinity) in Sprague-Dawley rat at 10 mg/kg, po administered as single dose. Details: time infinity, dose 10 mg/kg, route oral. The following applies: plasma. In kind it is ADME, organism-based.
Series [15] is described as follows: Cmax in Beagle dog at 10 mg/kg, po administered as single dose. The conditions noted are these: in vivo. Details: dose 10 mg/kg, route oral. In kind it is ADME, organism-based, Canis lupus familiaris.
Series [16] is described as follows: Systemic plasma clearance in Sprague-Dawley rat at 1 mg/kg, iv administered as single dose. More on the design: dose 1 mg/kg, route intravenous. In kind it is ADME, organism-based.
The nature of series [17]: Tmax in Sprague-Dawley rat at 10 mg/kg, po administered as single dose. In kind it is ADME, organism-based. Details: dose 10 mg/kg, route oral. The following applies: in vivo.
Series [18] can be described thus: AUC (0 to infinity) in Sprague-Dawley rat at 1 mg/kg, iv administered as single dose. More on the design: time infinity, dose 1 mg/kg, route intravenous. The following applies: plasma. The series is classed as ADME, organism-based.
Series [19] has as its system Canis familiaris. The experiment in a line: Area under curve (0 to infinity) in Beagle dog at 1 mg/kg, iv administered as single dose. The series is classed as ADME, organism-based, Canis lupus familiaris. More on the design: time infinity, dose 1 mg/kg, route intravenous. The conditions noted are these: in vivo.
The nature of series [20]: Cmax in Sprague-Dawley rat at 10 mg/kg, po administered as single dose. Details: dose 10 mg/kg, route oral. The following applies: in vivo. The series is classed as ADME, organism-based.
Series [21] can be described thus: Volume of distribution at steady state in Beagle dog at 1 mg/kg, iv administered as single dose. The series is classed as ADME, organism-based, Canis lupus familiaris. Details: dose 1 mg/kg, route intravenous. The following applies: in vivo, read-out: Vdss.
The test system of series [22] is Canis familiaris. In words: AUC (0 to infinity) in Beagle dog at 10 mg/kg, po administered as single dose. The series is classed as ADME, organism-based, Canis lupus familiaris, Plasma. Details: time infinity, dose 10 mg/kg, route oral. The conditions noted are these: in vivo.
Series [23] is described as follows: Half life in Sprague-Dawley rat at 1 mg/kg, iv administered as single dose. The series is classed as ADME, organism-based. More on the design: dose 1 mg/kg, route intravenous. The following applies: in vivo.
A short description of series [24]: Half life in Beagle dog at 1 mg/kg, iv administered as single dose. The following applies: in vivo. The series is classed as ADME, organism-based, Canis lupus familiaris. More on the design: dose 1 mg/kg, route intravenous.
A short description of series [25]: Systemic plasma clearance in Beagle dog at 1 mg/kg, iv administered as single dose. The series is classed as ADME, organism-based, Canis lupus familiaris. Details: dose 1 mg/kg, route intravenous.

As usually defined, the EC50 is the concentration giving half of the maximal effect. One may read the Ki as the equilibrium dissociation constant of an inhibitor or competing ligand from its target. What is called inhibition is the change of the read-out against control, counted positive when it falls. A word on the bioavailability: it is dose-corrected exposure relative to a reference, in per cent. For orientation: Tmax means the time from dosing to the highest level. Usually half-life stands for the time needed for the level to fall by half in the phase considered. For orientation: AUC(0-inf) means total exposure, with the tail of the curve extrapolated. Broadly, the Cmax is the peak of the concentration-time curve. What is called clearance is the rate of elimination divided by the concentration. Usually AUC stands for the area under the concentration-time curve, a measure of exposure.

T3 sequence (P34972 whole entry): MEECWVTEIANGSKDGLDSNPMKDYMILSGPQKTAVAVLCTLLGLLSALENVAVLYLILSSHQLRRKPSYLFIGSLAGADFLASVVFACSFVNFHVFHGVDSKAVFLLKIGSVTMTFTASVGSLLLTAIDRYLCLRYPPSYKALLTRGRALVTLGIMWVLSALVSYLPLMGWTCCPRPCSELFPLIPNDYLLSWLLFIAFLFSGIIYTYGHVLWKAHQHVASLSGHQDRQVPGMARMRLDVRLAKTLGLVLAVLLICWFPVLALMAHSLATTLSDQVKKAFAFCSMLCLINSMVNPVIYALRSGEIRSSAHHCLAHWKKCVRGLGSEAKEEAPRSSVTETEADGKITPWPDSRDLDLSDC
T2 sequence (P21554 whole entry): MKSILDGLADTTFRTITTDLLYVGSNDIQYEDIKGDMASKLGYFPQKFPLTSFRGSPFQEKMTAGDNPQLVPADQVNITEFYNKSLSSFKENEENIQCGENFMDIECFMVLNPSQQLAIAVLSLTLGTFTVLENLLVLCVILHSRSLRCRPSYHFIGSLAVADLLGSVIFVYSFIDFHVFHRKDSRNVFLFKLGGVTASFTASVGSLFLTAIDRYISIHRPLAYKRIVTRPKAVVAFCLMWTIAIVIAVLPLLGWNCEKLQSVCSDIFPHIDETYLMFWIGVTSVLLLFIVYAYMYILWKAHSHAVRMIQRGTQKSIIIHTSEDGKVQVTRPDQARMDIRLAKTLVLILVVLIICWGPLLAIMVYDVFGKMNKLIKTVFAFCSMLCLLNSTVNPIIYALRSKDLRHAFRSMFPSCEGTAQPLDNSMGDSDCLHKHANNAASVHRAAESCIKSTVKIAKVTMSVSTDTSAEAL

Regarding `CCC1(C(=O)Nc2cc(CN3CCOCC3)c(C)cn2)CCCC1`, the EC50 on Cannabinoid receptor 2 [1] worked out at 0.013 µM. Moreover, the remaining at 0.5 h in [2] was 12%. Moreover, the Ki at Cannabinoid receptor 1 [3] is 1.1 µM; on Cannabinoid receptor 2 [4], 0.013 µM. In addition, the Ratio Ki in the series listed under Homo sapiens came to 85.

As for `CCC1(C(=O)Nc2cc(CN3CCOCC3)c(C)cn2)CCCCC1`, the EC50 on Cannabinoid receptor 2 [1] worked out at 0.0088 µM. Moreover, on Cannabinoid receptor 1 [5], the inhibition is 36%. For the same compound, the remaining at 0.5 h in [6] and in series [2] was 0% throughout. The same compound registered a Ki at Cannabinoid receptor 2 [4] of 0.007 µM.

With `CCC(C)(C)C(=O)Nc1cnc(C)c(CN2CCOCC2)c1`, the inhibition at Cannabinoid receptor 1 [5] is 4%; at Cannabinoid receptor 2 [7] it was 46%.

Consider `Cc1cnc(NC(=O)C(C)(C)C)cc1CN1CCOCC1`, for which the EC50 at Cannabinoid receptor 2 [1] was found to be 0.07 µM. On Cannabinoid receptor 1 [5], the inhibition was found to be 37%. The compound further registered a Ki at Cannabinoid receptor 2 [4] of 0.081 µM.

For the compound `CCC(C)(C)C(=O)Nc1cc(CN2CCOCC2)c(C#N)cn1`, the EC50 at Cannabinoid receptor 2 [1] stood at 0.2 µM. The compound also had an inhibition at Cannabinoid receptor 1 [5] of 11%. Moreover, at Cannabinoid receptor 2 [4], the inhibition constant Ki came out at 0.1 µM.

With `CCC1(C(=O)Nc2cc(CN3CCOCC3)c(C)cn2)CCC1`, at Cannabinoid receptor 2 [1], the concentration giving a half-maximal response (EC50) is 0.14 µM. This compound displayed an inhibition on Cannabinoid receptor 1 [5] of 13%. In addition, the remaining at 0.5 h in series [6] was 48%; in [2], 51%. Also, on Cannabinoid receptor 2 [4], the Ki was determined as 0.045 µM.

`CCc1cnc(NC(=O)C(C)(C)CC)cc1CN1CCOCC1`: the EC50 on Cannabinoid receptor 2 [1] was 0.0096 µM. Further, the values for the remaining at 0.5 h in series [6] and in series [2] were 29% and 34%, respectively. Also, the Ki on Cannabinoid receptor 1 [3] was 4.3 µM; on Cannabinoid receptor 2 [4], 0.0079 µM. The Ratio Ki in the series filed under Homo sapiens was 550.

For the compound `CCC(C)(C)C(=O)Nc1cc(CN2CCOCC2)c(N)cn1`, the inhibition at Cannabinoid receptor 1 [5] stood at 10%. The Ki on Cannabinoid receptor 2 [4] is 0.87 µM.

For `CCC(C)(C)C(=O)Nc1ccc(C)c(CN2CCOCC2)c1`, the inhibition at Cannabinoid receptor 1 [5] was determined as 4%. Moreover, the remaining at 0.5 h in [6] turned out to be 2.2%.

Consider `CCC(C)(C)C(=O)Nc1cc(CN2CCOCC2)c(C)cc1C`, for which the inhibition at Cannabinoid receptor 1 [5] worked out at 18%. Further, the remaining at 0.5 h in [6] came out at 68%.

The compound `CCC(C)(C)C(=O)Nc1ccc(C)c(CN2CCOCC2)n1` came in with an inhibition on Cannabinoid receptor 1 [5] of 28%. At Cannabinoid receptor 2 [4], this compound came in with a Ki of 1.8 µM.

`CCC1(C(=O)Nc2cc(CN3CCOCC3)c(C)cn2)CC1`: the 50% effective concentration (EC50) on Cannabinoid receptor 2 [1] was found to be 0.062 µM. Also, the inhibition on Cannabinoid receptor 1 [5] amounted to 25%. This compound showed a Ki on Cannabinoid receptor 2 [4] of 0.063 µM.

Turning to `Cc1cnc(NC(=O)C2(C)CCCCC2C)cc1CN1CCOCC1` (centres undefined), the EC50 at Cannabinoid receptor 2 [1] was determined as 0.0028 µM. In addition, the remaining at 0.5 h is 0% in [6] and 1% in series [2]. The inhibition constant Ki at Cannabinoid receptor 1 [3] came to 2.5 µM; on Cannabinoid receptor 2 [4], 0.0019 µM. For the same compound, the Ratio Ki in the series filed under Homo sapiens is 1300.

Consider `CCC(C)(C)C(=O)Nc1cc(CN2CCOCC2)cc(C)n1`, for which the 50% effective concentration (EC50) on Cannabinoid receptor 2 [1] amounted to 0.26 µM. The compound further displayed an inhibition on Cannabinoid receptor 1 [5] of 0%. This compound also showed an inhibitory constant (Ki) on Cannabinoid receptor 2 [4] of 0.067 µM.

Turning to `CCCC(C)(C)C(=O)Nc1cc(CN2CCOCC2)c(C)cn1`, the 50% effective concentration (EC50) at Cannabinoid receptor 2 [1] was 0.0041 µM. In [2], the remaining at 0.5 h was determined as 15%. In addition, the inhibition constant (Ki) on Cannabinoid receptor 1 [3] amounted to 1.8 µM; at Cannabinoid receptor 2 [4], 0.0053 µM. For the same compound, in the series filed under Homo sapiens, the Ratio Ki was found to be 330.

In series [8], `CCC(C)(C)C(=O)Nc1cc(CN2CCOCC2)c(C)cn1` came in with a bioavailability of 57%. Besides, the Tmax in [9] stood at 0.5 h; in [17], 2 h. Also, the EC50 at Cannabinoid receptor 2 [1] was determined as 0.041 µM. Moreover, the Activity in the series with Rattus norvegicus is reported as 271%. Further, the half-life in series [10] is 1.1 h; in series [12] it was 2.1 h; in series [23] it was 0.5 h; in [24] it was 1.4 h. Moreover, the F in the series with Canis familiaris [11] turned out to be 29%. In addition, the remaining at 0.5 h came to 43% in [6] and 64% in series [2]. Besides, the Vd was 3.5 L/kg in [13] and 0.6 L/kg in [21]. Also, the AUC(0-inf) in series [14] is 893 ng·h/mL; in series [18], 158 ng·h/mL. The figures for the Cmax in series [15] and in series [20] were 535 ng/mL and 185 ng/mL, respectively. For the same compound, the clearance was 96.7 mL/min/kg in [16] and 15 mL/min/kg in series [25]. Further, the results for the Ki on Cannabinoid receptor 1 [3] and on Cannabinoid receptor 2 [4] were 3.8 µM and 0.024 µM, respectively. Further, the Ratio Ki in the series filed under Homo sapiens amounted to 160. In addition, the AUC worked out at 1127 ng·h/mL with Canis familiaris [19] and 977 ng·h/mL with Canis familiaris [22].
